Read-outs that look alike come from different tables or passages of the source.

This is an account of results in US5665745A, “Heterocyclic compounds and their preparation and use” (Eli Lilly and Company, priority 1995, dated 1997).

The target of assay [1] is T1, muscarinic receptors (M1 -site, pirenzepine sensitive site) (Rattus norvegicus, UniProt P08482).
T1 construct: from tissue; host or cells: cerebral cortex membranes of male Wistar rats
T1 sequence (P08482 1-460): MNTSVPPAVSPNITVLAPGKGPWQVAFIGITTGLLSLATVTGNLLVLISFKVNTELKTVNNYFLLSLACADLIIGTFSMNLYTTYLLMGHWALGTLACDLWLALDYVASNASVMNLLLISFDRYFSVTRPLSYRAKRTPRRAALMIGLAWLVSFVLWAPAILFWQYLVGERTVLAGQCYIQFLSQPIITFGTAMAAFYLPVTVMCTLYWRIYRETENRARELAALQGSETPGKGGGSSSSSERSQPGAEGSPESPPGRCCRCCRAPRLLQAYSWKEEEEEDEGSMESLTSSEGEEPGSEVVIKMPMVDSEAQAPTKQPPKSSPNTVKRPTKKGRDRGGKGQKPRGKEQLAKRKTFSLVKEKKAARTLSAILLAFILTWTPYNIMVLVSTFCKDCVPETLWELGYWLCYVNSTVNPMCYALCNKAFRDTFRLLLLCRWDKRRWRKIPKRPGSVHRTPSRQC
Put plainly: inhibition of ^3 HPRZ (pirenzepine, [N-methyl-^3 H]) binding to rat cerebral cortex membranes. Set-up: species or system rat (male Wistar. As to the method:
Furthermore the pharmacological properties of the compounds of the invention can also be illustrated by determining their capability to inhibit ^3 HPRZ (pirenzepine, [N-methyl-^3 H]) binding to rat cerebral cortex membranes.
Pirenzepine binds selectively to subtype of muscarinic receptors. Historically the type is named the M1 -site, whereas pirenzepine sensitive site would be more appropriate.
All preparations are performed at 0°-4° C. unless otherwise indicated. Fresh cortex ([…]) from male Wistar rats (150-200 g) is homogenized for 5-10 s in 10 mL 20 mM Hepes pH: 7.4, with an Ultra-Turrax homogenizer. The homogenizer is rinsed with 2×10 mL of buffer and the combined suspension centrifuged for 15 min. at 40,000×g. The pellet is washed three times with buffer. In each step the pellet is homogenized as before in 3×10 mL of buffer and centrifuged for 10 min. at 40,000×g.
The final pellet is homogenized in 20 mM Hepes pH: 7.4 (100 mL per g of original tissue) and used for binding assay. Aliquots of 0.5 mL is added 20 μl of test solution and 25 μL of ^3 HPRZ (1.0 nM, final conc.), mixed and incubated for 60 min. at 20° C. Non-specific binding is determined in triplicate using atropine (1 ,μg/mL, final conc.) as the test substance. After incubation samples are added 5 mL of ice-cold buffer and poured directly onto Whatman GF/C glass fiber filters under suction and immediately washed 2 times with 5 mL of ice-cold buffer. The amount of radioactivity on the filters are determined by conventional liquid scintillation counting. Specific binding is total binding minus non-specific binding.
Test substances are dissolved in 10 mL water, at a concentration of 0.22 mg/mL.
The test value will be given as IC50 (the concentration (nM) of the test substance which inhibits the specific binding of ^3 HPRZ by 50%). IC50 =(applied test substance concentration) x(Cx /Co -Cx)nM where Co is specific binding in control assays and Cx is the specific binding in the test assay. (The calculations assume normal mass-action kinetics).

Assay [2] concerns the target muscarinic acetylcholine receptors. Put plainly: inhibition of specific binding of ^3 H-Oxotremorine-M (^3 H-Oxo). The note with it: ^3 H-Oxotremorine 1.0 nM, rat cortex, 30 min. at 25° C. Set-up: species or system rat (male Wistar. The text has this: The pharmacological properties of the compounds of the invention can be illustrated by determining their capability to inhibit the specific binding of ^3 H-Oxotremorine-M (^3 H-Oxo). Birdsdall N. J. M., Hulme E. C., and Burgen A. S. V. (1980). "The Character of Muscarinic Receptors in Different Regions of the Rat Brain" Proc. Roy. Soc. London (Series B) 207,1.
^3 H-Oxo labels muscarinic receptor in the CNS (with a preference for agonist domains of the receptors). Three different sites are labeled by ^3 H-Oxo. […] Using the present experimental conditions only the high and medium affinity sites are determined.
The inhibitory effects of compounds on ^3 H-oxo binding reflects the affinity for muscarinic acetylcholine receptors.
All preparations are performed at 0°-4° C. unless otherwise indicated. Fresh cortex (0.1-1 g) from male Wistar rats (150-250 g) is homogenized for 5-10 seconds in 10 mL […] Hepes pH: 7.4, with an Ultra-Turrax homogenizer. The homogenizer is rinsed with 10 mL of buffer and the combined suspension centrifuged for 15 min. at 40,000×g. The pellet is washed three times with buffer. In each step the pellet is homogenized as before in 2×10 mL of buffer and centrifuged for 10 min. at 40,000×g.
The final pellet is homogenized in 20 mM Hepes pH: 7.4 (100 mL per g of original tissue) and used for binding assay. Aliquots of 0.5 mL is added 25 μL of test solution and 25 μL of ^3 H-Oxotremorine (1.0 nM, final concentration) mixed and incubated for 30 min. at 25° C. Non-specific binding is determined in triplicate using arecoline ([…], final concentration) as the test substance. After incubation samples are added 5 mL of ice-cold buffer and poured directly onto Whatman GF/C glass fiber filters under suction and immediately washed 2 times with 5 mL of ice-cold buffer. The amount of radioactivity on the filters are determined by conventional liquid scintillation counting. Specific binding is total binding minus non specific binding.
Test substances are dissolved in 10 mL water (if necessary heated on a steam-bath for less than 5 min.) at a concentration of 2.2 mg/mL. […] The test value will be given as IC50 (the concentration (nM) of the test substance which inhibits the specific binding of ^3 H-oxo by 50%). IC50 =(applied test substance concentration) x(Cx /Co -Cx)nM where Co is specific binding in control assays and Cx is the specific binding in the test assay. (The calculations assume normal mass-action kinetics).

Where [3] appears, read: ^3 HPRZ 1.0 nM, rat cortex, 60 min. at 20° C., read-out: ^3 HPRZ IC50 (head from b208 on: Pir IC-50).

As to `CCCCOc1nsnc1O[C@H]1CN2CCC[C@@H]1C2` (relative stereo) [Compound 71, 3-(1-Butyloxy)-4-[endo-(+,-)-6-(1-azabicyclo[3.2.1]octyloxy)]-1,2,5-thiadiazole], the IC50 (commonly the concentration needed to halve the response being measured) was 1.15 nM in assay [1] (setting [3]) and 1.1 nM in assay [2].

Consider `Fc1ccc(OC(CCSc2nsnc2OC2CN3CCC2CC3)c2ccc(F)cc2)cc1` (racemic) [Compound 152, (±)-3-(3-[4-fluorophenyl]-3-[4-fluorophenoxy]propylthio)-4-(1-azabicyclo[2.2.2]octyl-3-oxy)-1,2,5-thiadiazole], for which the IC50 in assay [1] (setting [3]) was determined as 243 nM; in assay [2] it was 436 nM.

Regarding `CCCCCOc1nsnc1OC1CN2CCC1CC2` (racemic) [Compound 9, (±)-3-Pentyloxy-4-(1-azabicyclo[2.2.2]octyl-3-oxy)-1,2,5-thiadiazole], the figures for the 50% inhibitory concentration (IC50) in assay [1] and in assay [2] were 25 nM and 11 nM, respectively.

Consider `CCCCSc1nsnc1OCCN(CC)CC` [Compound 34, 3-Butylthio-4-(2-(diethylamino)ethoxy)-1,2,5-thiadiazole], for which the IC50 in assay [1] (setting [3]) was found to be 10 nM; in assay [2], 86 nM.

On to `c1ccc(CCCSc2nsnc2OC2CN3CCC2CC3)cc1` (racemic) [Compound 40, (±)-3-(3-Phenylpropylthio)-4-(1-azabicyclo[2.2.2]octyl-3-oxy)-1,2,5-thiadiazole], for which the IC50 in assay [1] was determined as 2.5 nM; in assay [2], 1.8 nM.

As to `C1CCC(CCOc2nsnc2O[C@@H]2CN3CCC[C@H]2C3)CC1` (relative stereo) [Compound 200, (±)-endo-3-(2-Cyclohexylethoxy)-4-(1-azabicyclo[3.2.1]octyl-6-oxy)-1,2,5-thiadiazole], the 50% inhibitory concentration (IC50) in assay [1] (setting [3]) stood at 12 nM; in assay [2] it was 16 nM.

Turning to `CCCCCCc1nsnc1OC1CN2CCC1CC2` (racemic) [Compound 101, (±)-3-Hexyl-4-(1-azabicyclo[2.2.2]octyl-3-oxy)-1,2,5-thiadiazole], the results for the IC50 in assay [1] and in assay [2] were 36 nM and 88 nM, respectively.

Turning to `FC(F)(F)c1cccc(CCOc2nsnc2O[C@@H]2CN3CCC[C@H]2C3)c1` (relative stereo) [Compound 188, (±)-endo-3-[2-(3-Trifluoromethylphenyl)ethoxy]-4-(1-azabicyclo[3.2.1]octyl-6-oxy)-1,2,5-thiadiazole], the 50% inhibitory concentration (IC50) in assay [1] (setting [3]) worked out at 43 nM; in assay [2], 12 nM.

On to `CCCCOc1nsnc1OC1CNC1` [Compound 50, 3-Butyloxy-4-(3-azetidinyloxy)-1,2,5-thiadiazole], for which the values for the half-inhibitory concentration (IC50) in assay [1] (setting [3]) and in assay [2] were 351 nM and 92 nM, respectively.

As for `c1csc(CCCOc2nsnc2O[C@@H]2CN3CCC[C@H]2C3)c1` (relative stereo) [Compound 206, (±)-endo-3-[3-(2-Thienyl)propoxy]-4-(1-azabicyclo[3.2.1]octyl-6-oxy)-1,2,5-thiadiazole], the IC50 stood at 5 nM in assay [1] (setting [3]) and 6.1 nM in assay [2].

In the case of `CCCCCCOc1nsnc1O[C@@H]1CN2CCC[C@H]1C2` (relative stereo) [Compound 136, (±)-endo-3-Hexyloxy-4-(1-azabicyclo[3.2.1]octyl-6-oxy)-1,2,5-thiadiazole], the IC50 amounted to 6.42 nM in assay [1] (setting [3]) and 2.73 nM in assay [2].

As to `CSc1ccc(COc2nsnc2O[C@@H]2CN3CCC[C@H]2C3)cc1` (relative stereo) [Compound 172, (±)-endo-3-(4-Methylthiobenzyloxy)-4-(1-azabicyclo[3.2.1]octyl-6-oxy)-1,2,5-thiadiazole], the IC50 in assay [1] (setting [3]) is 10 nM; in assay [2] it was 5.2 nM.

Consider `CCCCSc1nsnc1O[C@H]1CN2CCC[C@@H]1C2` (relative stereo) [Compound 70, (±)3-(1-Butylthio)-4-[endo-6-(1-azabicyclo[3.2.1]octyloxy)]-1,2,5-thiadiazole], for which the IC50 in assay [1] (setting [3]) was 0.65 nM; in assay [2], 1.3 nM.

In the case of `CCCCSc1nsnc1OC1CCCN(C)C1` (racemic) [Compound 29, (±)-3-Butylthio-4-(1-methyl-3-piperidyloxy)-1,2,5-thiadiazole], the IC50 in assay [1] (setting [3]) is 20 nM; in assay [2], 34 nM.

In the case of `CC(C)=CCOc1nsnc1O[C@@H]1CN2CCC[C@H]1C2` (relative stereo) [Compound 201, (±)-endo-3-(3-Methyl-2-butenyloxy)-4-(1-azabicyclo[3.2.1]octyl-6-oxy)-1,2,5-thiadiazole], the values for the half-inhibitory concentration (IC50) in assay [1] (setting [3]) and in assay [2] were 3.1 nM and 3.7 nM, respectively.

In the case of `CCCCSc1nsnc1OC1CCNC1` (racemic) [Compound 53, (±)-3-Butylthio-4-(3-pyrrolidnyloxy)-1,2,5-thiadiazole], the IC50 in assay [1] (setting [3]) amounted to 35 nM; in assay [2] it was 24 nM.

As to `c1csc(CCCSc2nsnc2OC2CN3CCC2CC3)c1` (racemic) [Compound 21, (±)-3-(3-(2-Thienyl)propylthio)-4-(1-azabicyclo[2.2.2]-octyl-3-oxy-1,2,5-thiadiazole], the concentration for half-maximal inhibition (IC50) was determined as 4 nM in assay [1] and 4.4 nM in assay [2].

Take `COc1nsnc1OC1CN2CCC1CC2` (racemic) [Compound 5, (±)-3-Methoxy-4-(1-azabicyclo[2.2.2]octyl-3-oxy)-1,2,5-thiadiazole]: the concentration for half-maximal inhibition (IC50) in assay [1] (setting [3]) was determined as 183 nM; in assay [2] it was 162 nM.

Take `CCCCOc1nsnc1O[C@@H]1C[C@H]2CC(=O)C[C@@H]1N2C` (relative stereo) [Compound 46, (±)-exo-3-Butyloxy-4-(6-(N-methyl-8-azabicyclo[3.2.1]octan-3-onoxy))-1,2,5-thiadiazole]: the IC50 in assay [1] (setting [3]) and in assay [2] was above 1000 nM in each case.

For the compound `CCCCOc1nsnc1O[C@@H]1CCC[C@@H]1N` [Compound 135, 3-Butyloxy-4-(cis-1R-2-aminocyclopentanoxy)-1,2,5-thiadiazole], the concentration for half-maximal inhibition (IC50) in assay [1] (setting [3]) and in assay [2] was above 1000 nM throughout.

`CCCCCCOc1nsnc1OC1CN2CCC1CC2` (racemic) [Compound 10, (±)-3-Hexyloxy-4-(1-azabicyclo[2.2,2]octyl-3-oxy)-1,2,5-thiadiazole]: the half-maximal inhibitory concentration (IC50) turned out to be 22 nM in assay [1] and 6.1 nM in assay [2].

Turning to `c1cncc(CCCSc2nsnc2OC2CN3CCC2CC3)c1` (racemic) [Compound 155, (±)-3-(3-[3-pyridyl]propylthio)-4-(1-azabicyclo[2.2.2]octyl-3-oxy)-1,2,5-thiadiazole], the IC50 worked out at 8.8 nM in assay [1] and 3.4 nM in assay [2].
